From patent publication US20180186755A1, “LYSYL OXIDASE-LIKE 2 INHIBITORS AND USES THEREOF” (PharmAkea, Inc., priority 2015, published 2018)

Legend:
human LOXL2 = target: T1, human LOXL2 (Homo sapiens, UniProt Q9Y4K0); assay: Human LOXL2 amine oxidase activity assay (Amplex Red fluorescence); type: biochemical; settings: concentrated conditioned media from CHO cells stably expressing human LOXL2; 2 h at 37° C. preincubation; DAP substrate
T1 construct: expressed in transfected cells; 10-20x concentrated conditioned media used as the enzyme source
T1 sequence (Q9Y4K0 26-774): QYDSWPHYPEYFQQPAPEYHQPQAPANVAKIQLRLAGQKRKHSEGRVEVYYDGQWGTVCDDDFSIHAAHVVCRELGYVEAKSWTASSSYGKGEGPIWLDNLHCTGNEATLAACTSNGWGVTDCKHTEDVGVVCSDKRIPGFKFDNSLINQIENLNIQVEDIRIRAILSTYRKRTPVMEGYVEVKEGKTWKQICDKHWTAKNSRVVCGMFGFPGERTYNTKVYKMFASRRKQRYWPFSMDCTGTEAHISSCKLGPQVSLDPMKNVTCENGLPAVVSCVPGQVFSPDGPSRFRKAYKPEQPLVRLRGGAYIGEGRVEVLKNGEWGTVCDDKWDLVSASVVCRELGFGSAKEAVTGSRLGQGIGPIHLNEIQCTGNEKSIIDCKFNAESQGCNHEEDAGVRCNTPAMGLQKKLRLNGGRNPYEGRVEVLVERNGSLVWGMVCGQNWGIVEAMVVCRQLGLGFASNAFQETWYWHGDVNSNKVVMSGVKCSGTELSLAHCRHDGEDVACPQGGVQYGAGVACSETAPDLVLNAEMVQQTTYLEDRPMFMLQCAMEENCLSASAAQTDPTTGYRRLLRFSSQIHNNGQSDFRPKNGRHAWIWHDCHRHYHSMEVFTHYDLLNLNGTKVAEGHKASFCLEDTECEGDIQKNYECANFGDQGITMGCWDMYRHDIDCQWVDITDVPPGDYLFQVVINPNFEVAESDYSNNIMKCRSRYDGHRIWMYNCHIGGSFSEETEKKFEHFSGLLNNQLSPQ
Outline: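 Enzyme source: 10-20× concentrated conditioned media from CHO cells stably expressing human LOXL2, preincubated with compound for 2 h at 37° C in 50 mM borate pH 8. Reaction started with 1,5-diaminopentane plus Amplex Red/HRP; fluorescence (ex 544/em 590) read kinetically for 1 hour, activity from linear slope.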

[1] = system: bleomycin-induced lung fibrosis in C57Bl/6 male mice; assay: Mouse oropharyngeal bleomycin model of lung fibrosis; type: in vivo; settings: dosed prophylactically at 60 mg/kg p.o.
Experimental: Example B-3: Mouse Oropharyngeal Bleomycin Model of Lung Fibrosis
Lung fibrosis is induced in C57Bl/6 male mice by administering bleomycin (0.1-4 U/kg) via oropharyngeal instillation. Mice are either pretreated with vehicle or test compound (1 day to 1 hour) orally, intraperitoneally, intravenously or subcutaneously before bleomycin installation (prophylactic dosing) or 7-14 days post bleomycin instillation (therapeutic dosing). The route and frequency of dosing are based on previously determined pharmacokinetic properties for the LOXL2 inhibitor in mouse. After bleomycin instillation animals are monitored daily for weight loss and clinical signs for 14-28 days prior to sacrifice. […] For histological examination, lung slices are stained with Masson's trichrome or Picro-Sirius red to measure cross-linked collagen as an indicator of fibrosis and an Ashcroft score of lung fibrotic and inflammatory damage determined. In addition, immunohistochemistry of fibrotic proteins such as a-smooth muscle actin can be recorded. […] After the acid hydrolysis, 25-100 μl of the supernatant is dried down, resuspended in 25 μl water and the hydroxyproline content determined by the addition of 0.5 ml Chloramine T solution (140 mg Chloramine T in 6.5 ml ddH20+1 ml n-propanol+2.5 ml 1M sodium acetate) and incubation at room temperature for 20 min. […]

Structure (SMILES) | IC50 (human LOXL2) [nM] | efficacy in mouse oropharyngeal bleomycin model of lung fibrosis [1]
NCc1cc(Oc2cccc(C(=O)N3CCN(c4ccccc4)CC3)c2)ncn1 [Compound 1-72, (3-((6-(Aminomethyl)pyrimidin-4-yl)oxy)phenyl)(4-phenylpiperazin-1-yl)methanone] | < 100 | efficacious
Cl.NCc1cc(Oc2cccc(C(=O)NCc3ccnc(Cl)c3)c2)ncn1 [Compound 1-55, 3-((6-(Aminomethyl)pyrimidin-4-yl)oxy)-N-((2-chloropyridin-4-yl)methyl)benzamide] | < 100 | efficacious
